The target of assay [1] is T1, ADAAD (Bos taurus, UniProt Q9TTA5).
T1 sequence (Q9TTA5 229-940 limits assumed): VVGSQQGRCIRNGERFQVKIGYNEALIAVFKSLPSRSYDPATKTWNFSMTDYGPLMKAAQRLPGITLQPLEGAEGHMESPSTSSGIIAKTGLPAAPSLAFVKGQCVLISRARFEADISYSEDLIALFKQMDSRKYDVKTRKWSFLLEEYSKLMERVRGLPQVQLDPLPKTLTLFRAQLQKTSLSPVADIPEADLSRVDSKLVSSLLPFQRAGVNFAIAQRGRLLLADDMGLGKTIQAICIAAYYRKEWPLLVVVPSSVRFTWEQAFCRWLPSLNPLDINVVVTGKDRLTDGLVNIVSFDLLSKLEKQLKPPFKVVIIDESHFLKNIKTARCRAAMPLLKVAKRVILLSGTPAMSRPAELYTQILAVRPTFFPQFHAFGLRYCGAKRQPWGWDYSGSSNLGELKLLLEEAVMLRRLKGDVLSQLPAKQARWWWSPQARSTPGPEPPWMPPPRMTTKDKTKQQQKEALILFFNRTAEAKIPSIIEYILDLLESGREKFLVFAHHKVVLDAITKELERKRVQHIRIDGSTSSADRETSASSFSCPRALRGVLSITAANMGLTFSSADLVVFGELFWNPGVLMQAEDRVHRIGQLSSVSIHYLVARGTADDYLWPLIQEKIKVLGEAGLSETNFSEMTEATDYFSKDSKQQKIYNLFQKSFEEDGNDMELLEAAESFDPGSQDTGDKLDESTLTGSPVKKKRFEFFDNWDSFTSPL
The assay can be described thus: Intrinsic tryptophan fluorescence quenching binding titration with His-ADAAD. The method, then: His-ADAAD, used for binding studies, was purified as described previously. For mapping and CD studies, ADAAD as well as deletion constructs were expressed as GST-fusion protein in BL21 (DE3) cells and purified as described previously. In case of deletion constructs the GST-tag was not cleaved as the resultant proteins were not stable.
Fluorescence was measured at 25°C using Cary-Varian spectrofluorimeter as described previously. Stem-loop DNA (5′- […]-3′), synthesized by Sigma-Aldrich, was used in these studies. The intrinsic fluorescence quenching data obtained with acrylamide was analyzed using Stern-Volmer plots as described previously, [14].
To understand the interaction of ADAADi with ADAAD, a member of the SWI2/SNF2 family, we synthesized ADAADi using kanamycin and neomycin. These derivatives, ADAADiK and ADAADiN respectively, were purified and titrated with protein while monitoring the quenching of the intrinsic tryptophan fluorescence. […] This binding constant was same as that in the absence of ATP and slDNA. A similar result was obtained with ADAADiK (Figure S3A and S3B; Table 1). We thus conclude that the interaction of the inhibitor with ADAAD is independent of these two ligands.

Assay [2] addresses T1, ADAAD. As to conditions: ADAAD alone; His-ADAAD; ref Nongkhlaw et al. (Nongkhlaw, 2009); cited from earlier work.

Like-named read-outs stand apart in the source and are kept apart here.

The Kd is the concentration at which binding is half-saturated.

As for `Nc1ncnc2c1ncn2[C@@H]1O[C@H](COP(=O)(O)OP(=O)(O)OP(=O)(O)O)[C@@H](O)[C@H]1O` [ATP], the Kd in assay [1] was 100 ± 3 nM; in assay [2], 1600 nM. The “fold higher affinity than in the absence of the inhibitor” value in assay [1] (in the presence of ADAADiK) and in assay [1] (in the presence of ADAADiN) was 10 fold each time.

Values taken from article PMC3509132, “Global Epigenetic Changes Induced by SWI2/SNF2 Inhibitors Characterize Neomycin-Resistant Mammalian Cells” (PLoS ONE, 2012).
